This note sets out measurements from patent US20130303564A1, “METHOD FOR TREATING A NEURODEGENERATIVE DISORDER” (RUSH UNIVERSITY MEDICAL CENTER, priority 2012, published 2013).

One experiment relates to iNOS. The procedure:
Mouse BV-2 microglial cells were treated with different concentrations of NaPB for 6 h followed by stimulation with 1 μM. MPP under serum-free condition. After 5 h of stimulation, the mRNA expression of iNOS, IL-1β and TNF-α was monitored by semi-quantitative RT-PCR (A) and quantitative real-time PCR (C, iNOS; D, IL-1β; E, TNF-α). After 24 h of stimulation, the protein expression of iNOS was monitored by Western blot (B).
Glial inflammation is a critical component of PD pathogenesis which is mirrored in MPTP mouse models. The neurotoxic effect of MPTP depends on its conversion into MPP+. In glial cells, MAO-B converts MPTP to MPP+, which then leads to glial activation. MPP+ is able to stimulate the microglial expression of inflammatory molecules including NO, TNF-α, IL-1β, and IL-6. Although, a well characterized receptor for MPP+ was not known in microglial cells until recent past, low dose of MPP+ stimulates microglial activation via the engagement of cysteinyl leukotriene receptor (CysLT1R), MPP+ dependent activation of CysLT1R and its subsequent translocation from plasma membrane to cytosol plays a critical role in the process of microglial activation. Therefore, we investigated MPP+ could induce the expression of proinflammatory molecules microglia and if NaPB suppressed such induction.
Real-time PCR analysis: It was performed in the ABI-Prism7700 sequence detection system (Applied Biosystems, Foster City, Calif.) using TaqMan Universal Master mix and optimized concentrations of FAM-labeled probes and primers.

Another experiment deals with BV-2 microglial cells. Description: Superoxide production in microglial cells. Type of experiment: cell-based, mouse. The following applies: 500 μM. The text has this: Results represent three independent experiments.
Superoxide measurements: Superoxide production was detected by LumiMax™ Superoxide Anion Detection Kit (Stratagene) as described by us (30).

Another experiment has as its system cholesterol. Description: Serum cholesterol in male C57/BL6 mice. The experiment is classed as in vivo, mouse. The following applies: 200 mg/kg body wt/d, oral, 7 d. The procedure:
Mice (6-8 wk old) were treated with NaPB (200 mg/kg body wt/d) and pravastatin (1 mg/kg body wt/d) separately via gavage for 7 d followed by quantification of cholesterol in serum using a simple fluorometric method.
Intermediates of the mevalonate pathway play a role in the expression of iNOS and proinflammatory cytokines in glial cells. End product of the mevalonate pathway is cholesterol and therefore, we investigated if NaPB had any effect on the level of cholesterol in vivo in mice.
Assay of cholesterol in serum: Total cholesterol was quantified irr serum by using an Amplex Red Cholesterol Assay kit from Invitrogen. Briefly, cholesterol was oxidized by cholesterol oxidase to yield H2O2, which then reacted with 10-acetyl-3,7 dihydroxyphenoxazine (Amplex Red). In the presence of horseradish peroxidase (HRP), this Amplex Red:H2O2 complex produced highly fluorescent resorufin, which was detected by fluorometry.

The test system of another experiment is primary human astroglia. To be noted: 6 h preincubation, IL-1β 48 h. The protocol:
(§1) Primary mouse microglia were treated with different concentrations of NaPB for 6 h followed by stimulation with LPS under serum-free condition. After 24 h of stimulation, concentrations of nitrite were measured in supernatants (A) and the level of iNOS protein was monitored in cells by Western blot (B). […] After 5 h of stimulation, the expression of iNOS mRNA was monitored by semi-quantitative RT-PCR (C). Cells preinctibated with different concentration of trichostatin A (TSA) and sodium butyrate (NaBu) for 6 h were stimulated with LPS for 24 h under serum-free condition followed by monitoring the level of nitrite in supernatants (p). […] Primary human astroglia isolated from fetal brain tissues were treated with different concentrations of NaPB for 6 h followed by stimulation with IL-1β under serum-free condition. After 48 h of stimulation, concentrations of nitrite (E) were measured in supernatants. Human astroglia plated at 70-80% confluence in 12-well plates were co-transfected with 0.25 μg of phiNOS(7.2)Luc and 12.5 ng of pRL-TK using the Lipofectamine-Plus (Invitrogen). Twenty-four h after transfection, cells received NaPB. After 6 h of incubation, cells were stimulated with IL-1β (20 ng/ml) for 12 h. Firefly (ff-Luc) and Renilla (r-Luc) luciferase activities were obtained by analyzing the total cell extract (F).

The next experiment deals with human iNOS promoter. The following applies: phiNOS(7.2)Luc; 6 h preincubation, IL-1β 20 ng/ml 12 h. The protocol:
as §1

A further experiment concerns p21^ras. To be noted: 500 μM preincubation.

Description for p21^ras: A) Mouse BV-2 microglial cells preincubated with different concentrations of FTI and GGTI were stimulated with LPS for 60 min followed by monitoring the activation of NF-κB by EMSA. B) Cells preincubated with different concentrations of FTI and GGTI were stimulated with LPS for 10 min followed by monitoring the production of superoxide. […] C) Cells were transfected with Δp21^ras, Δp21^rac or an empty vector using Lipofectamine Plus. Twenty-four hour after transfection, cells were stimulated with LPS followed by monitoring superoxide production at 15 and 30 ‘rain of stimulation. ^ap<0.001 vs control; ^bp<0.001 vs LPS-15 min; ^cp<0.001 vs LPS-30 min. D) Cells preincubated with 500 μM NaPB were stimulated with LPS. At different time points, activation of p21^ras and p21^rac was monitored. Results represent three independent experiments.
Next, we examined the effect of NaPB on the activation of p21^ras and p21^rac.
Activation of p21^ras and p21^rac: Activation of p21^ras was monitored. Briefly, after 6 h of MPTP insult, ventral midbrain was dissected out and frozen immediately on dry ice. […] Then the amount of activated p21^ras was determined in GST beads by a Western blot using a p21^ras specific antibody.

Regarding sodium phenylbutyrate [NaPB], the “MPP+-induced iNOS mRNA expression” value in the experiment with iNOS (6 h preincubation, 1 μM MPP+ 5 h) is “suppressed”. Also, in the experiment on iNOS (6 h preincubation, 1 μM MPP+ 24 h, Western blot), the “MPP+-induced iNOS protein expression” value is recorded as “suppressed”. For the same substance, the “RasV12-induced expression of iNOS mRNA” value in the experiment with iNOS (RasV12-transfected cells, NaPB 6 h) is on record as “attenuated”. Further, in the experiment with BV-2 microglial cells (6 h, 1 μM MPP+), the “MPP+-induced production of superoxide” value was “attenuated”. Further, the “LPS-, TNF-α-, IL-1β-, gp120-, and Aβ-induced production of superoxide” value in the experiment on BV-2 microglial cells (6 h preincubation, 10 min stimulation) was “knocked down”. In the experiment on cholesterol, the “reduction of the level of cholesterol in serum” value is given as “about 30%”. The “IL-1β-induced production of NO” value with primary human astroglia is recorded as “markedly inhibited”. Moreover, in the experiment with human iNOS promoter, the “IL-1β-induced activation of iNOS promoter” value is “markedly inhibited”. Further, the “LPS-induced activation of p21^ras” value with p21^ras is “markedly suppressed”.
